Laboratory results taken from PubChem BioAssay AID2060893 (Molecular Pharmacology Branch, DTP, NCI, 2025).
Blank lines part the entries; values can stand above or below the compound they belong to.

Test system: K86415-001-R-J1-PDC complex spheroids, viability
Experiment: Anticancer human tumor K86415-001-R-J1-PDC patient-derived lung adenocarcinoma cell line growth inhibition [RAS]
Conditions: for viability, T/C: stronger effect = lower value
In short: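 Agents were tested in combination matrices in half-log decrements from a top concentration at or near clinical Cmax (10 microM if undetermined). Targets were multi-cell spheroids of tumour lines plus HUVEC and MSC stromal cells.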

[1] = curve of first compound, second compound 0.000949 µM
[2] = curve of first compound, second compound 0.003 µM
[3] = curve of first compound, second compound 0.00949 µM
[4] = curve of first compound, second compound 0.03 µM
[5] = curve of first compound, second compound 0.0949 µM
[6] = curve of first compound, second compound 0.3 µM
[7] = second compound 0.000949 µM, first compound 0.0316 µM
[8] = second compound 0.000949 µM, first compound 0.1 µM
[9] = second compound 0.000949 µM, first compound 0.316 µM
[10] = second compound 0.000949 µM, first compound 1 µM
[11] = second compound 0.003 µM, first compound 0.0316 µM
[12] = second compound 0.003 µM, first compound 0.1 µM
[13] = second compound 0.003 µM, first compound 0.316 µM
[14] = second compound 0.003 µM, first compound 1 µM
[15] = second compound 0.00949 µM, first compound 0.0316 µM
[16] = second compound 0.00949 µM, first compound 0.1 µM
[17] = second compound 0.00949 µM, first compound 0.316 µM
[18] = second compound 0.00949 µM, first compound 1 µM
[19] = second compound 0.03 µM, first compound 0.0316 µM
[20] = second compound 0.03 µM, first compound 0.1 µM
[21] = second compound 0.03 µM, first compound 0.316 µM
[22] = second compound 0.03 µM, first compound 1 µM
[23] = second compound 0.0949 µM, first compound 0.0316 µM
[24] = second compound 0.0949 µM, first compound 0.1 µM
[25] = second compound 0.0949 µM, first compound 0.316 µM
[26] = second compound 0.0949 µM, first compound 1 µM
[27] = second compound 0.3 µM, first compound 0.0316 µM
[28] = second compound 0.3 µM, first compound 0.1 µM
[29] = second compound 0.3 µM, first compound 0.316 µM
[30] = second compound 0.3 µM, first compound 1 µM
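Note: spheroids exposed to agents for seven days before readout.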

Compound: CCn1c(-c2cccnc2C(C)OC)c2c3cc(ccc31)N1CCOC(CC(NC(=O)C(C(C)C)N(C)C(=O)C3(F)CCN(C(=O)C#CC(C)(C)N(C)C)CC3)C(=O)N3CCCC(N3)C(=O)OCC(C)(C)C2)C1 (stereo not given)
viability, T/C (compound 0.000949 µM): 41.9% [middle of 8 runs] | viability, T/C (compound 0.003 µM): 13.8% [middle of 8 runs] | viability, T/C (compound 0.00949 µM): 11.6% [middle of 7 runs] | viability, T/C (compound 0.03 µM): 12.7% [middle of 8 runs] | viability, T/C (compound 0.0949 µM): 14.9% [middle of 8 runs] | viability, T/C (compound 0.3 µM): 14% [middle of 8 runs] | IC50 (compound alone, run of 07/09/2024): < 0.949 nM

Compound: O=C(c1ccc(F)c(F)c1Nc1ccc(I)cc1F)N1CC(O)([C@@H]2CCCCN2)C1
viability, T/C (compound 0.00316 µM): 103% [middle of 4 runs] | viability, T/C (compound 0.01 µM): 90% [middle of 4 runs] | viability, T/C (compound 0.0316 µM): 59% [middle of 4 runs] | viability, T/C (compound 0.1 µM): 46% [middle of 4 runs] | viability, T/C (compound 0.316 µM): 22.4% [middle of 4 runs] | viability, T/C (compound 1 µM): 8.88% [middle of 4 runs] | IC50 (curve of compound): 68 nM [middle of 4 runs]

Compound: NC1c2ccccc2OC12CCN(c1cnc3c(N4CCCc5ncccc54)n[nH]c3n1)CC2 (stereo not given) + CCn1c(-c2cccnc2C(C)OC)c2c3cc(ccc31)N1CCOC(CC(NC(=O)C(C(C)C)N(C)C(=O)C3(F)CCN(C(=O)C#CC(C)(C)N(C)C)CC3)C(=O)N3CCCC(N3)C(=O)OCC(C)(C)C2)C1
IC50 [1]: < 31.6 nM | IC50 [2]: < 31.6 nM | IC50 [3]: < 31.6 nM | IC50 [4]: < 31.6 nM | IC50 [5]: < 31.6 nM | IC50 [6]: < 31.6 nM | viability, T/C [7]: 13.4% | viability, T/C [8]: 8.22% | viability, T/C [9]: 6.07% | viability, T/C [10]: 6.52% | viability, T/C (second compound 0.000949 µM, first compound 3.16 µM): 7.18% | viability, T/C (second compound 0.000949 µM, first compound 10 µM): 5.23% | viability, T/C [11]: 5.86% | viability, T/C [12]: 4.35% | viability, T/C [13]: 4.13% | viability, T/C [14]: 4.19% | viability, T/C (second compound 0.003 µM, first compound 3.16 µM): 4.18% | viability, T/C (second compound 0.003 µM, first compound 10 µM): 3.63% | viability, T/C [15]: 6.83% | viability, T/C [16]: 4.56% | viability, T/C [17]: 3.88% | viability, T/C [18]: 3.79% | viability, T/C (second compound 0.00949 µM, first compound 3.16 µM): 3.72% | viability, T/C (second compound 0.00949 µM, first compound 10 µM): 4.04% | viability, T/C [19]: 5.26% | viability, T/C [20]: 5.42% | viability, T/C [21]: 4.52% | viability, T/C [22]: 3.97% | viability, T/C (second compound 0.03 µM, first compound 3.16 µM): 2.82% | viability, T/C (second compound 0.03 µM, first compound 10 µM): 3.8% | viability, T/C [23]: 6.89% | viability, T/C [24]: 5.55% | viability, T/C [25]: 3.94% | viability, T/C [26]: 3.94% | viability, T/C (second compound 0.0949 µM, first compound 3.16 µM): 2.53% | viability, T/C (second compound 0.0949 µM, first compound 10 µM): 3.05% | viability, T/C [27]: 5.95% | viability, T/C [28]: 4.18% | viability, T/C [29]: 4.35% | viability, T/C [30]: 2.49% | viability, T/C (second compound 0.3 µM, first compound 3.16 µM): 2.46% | viability, T/C (second compound 0.3 µM, first compound 10 µM): 2.39%

The next lines start with results.

IC50 [1]: < 3.16 nM | IC50 [2]: < 3.16 nM | IC50 [3]: < 3.16 nM | IC50 [4]: < 3.16 nM | IC50 [5]: < 3.16 nM | IC50 [6]: < 3.16 nM
Compound: CCN1CCN(Cc2ccc(Nc3ncc(F)c(-c4cc(F)c5nc(C)n(C(C)C)c5c4)n3)nc2)CC1 + CCn1c(-c2cccnc2C(C)OC)c2c3cc(ccc31)N1CCOC(CC(NC(=O)C(C(C)C)N(C)C(=O)C3(F)CCN(C(=O)C#CC(C)(C)N(C)C)CC3)C(=O)N3CCCC(N3)C(=O)OCC(C)(C)C2)C1
viability, T/C (second compound 0.000949 µM, first compound 0.00316 µM): 39.1% | viability, T/C (second compound 0.000949 µM, first compound 0.01 µM): 31.2% | viability, T/C [7]: 20% | viability, T/C [8]: 30.3% | viability, T/C [9]: 31.1% | viability, T/C [10]: 20.5% | viability, T/C (second compound 0.003 µM, first compound 0.00316 µM): 12.1% | viability, T/C (second compound 0.003 µM, first compound 0.01 µM): 13.1% | viability, T/C [11]: 12.2% | viability, T/C [12]: 13.9% | viability, T/C [13]: 16.7% | viability, T/C [14]: 14.6% | viability, T/C (second compound 0.00949 µM, first compound 0.00316 µM): 11.7% | viability, T/C (second compound 0.00949 µM, first compound 0.01 µM): 12.4% | viability, T/C [15]: 10.6% | viability, T/C [16]: 11.8% | viability, T/C [17]: 14.3% | viability, T/C [18]: 19.3% | viability, T/C (second compound 0.03 µM, first compound 0.00316 µM): 14% | viability, T/C (second compound 0.03 µM, first compound 0.01 µM): 11.8% | viability, T/C [19]: 11.1% | viability, T/C [20]: 14% | viability, T/C [21]: 14.5% | viability, T/C [22]: 13.9% | viability, T/C (second compound 0.0949 µM, first compound 0.00316 µM): 12.4% | viability, T/C (second compound 0.0949 µM, first compound 0.01 µM): 14.8% | viability, T/C [23]: 15.8% | viability, T/C [24]: 14.8% | viability, T/C [25]: 14.4% | viability, T/C [26]: 13.8% | viability, T/C (second compound 0.3 µM, first compound 0.00316 µM): 13.6% | viability, T/C (second compound 0.3 µM, first compound 0.01 µM): 12% | viability, T/C [27]: 11.1% | viability, T/C [28]: 10.8% | viability, T/C [29]: 9.64% | viability, T/C [30]: 11.7%

IC50 (curve of compound): 136 nM [middle of 4 runs]
Compound: Nc1ccn(C2OC(CO)C(O)C2(F)F)c(=O)n1 (stereo not given)
viability, T/C (compound 0.00316 µM): 106% [middle of 4 runs] | viability, T/C (compound 0.01 µM): 97.5% [middle of 4 runs] | viability, T/C (compound 0.0316 µM): 78.7% [middle of 4 runs] | viability, T/C (compound 0.1 µM): 61.3% [middle of 4 runs] | viability, T/C (compound 0.316 µM): 31.2% [middle of 4 runs] | viability, T/C (compound 1 µM): 22.3% [middle of 4 runs]
